Assay results taken from publication PMC12188320 (2025).

Tests used:
[1] = system: CMYC (DNA, G4) TGGGGAGGGTGGGGAGGGTGGGGAAGG; test: absorbance and luminescence titration; settings: K+ (10 mM potassium phosphate, 100 mM KCl); Ru-PIC 10 µM, CMYC 0-30 µM; no constant
[2] = system: NRAS (RNA, G4) UGUGGGAGGGGCGGGUCUGGGUGC; test: CD melting; settings: Li+ (10 mM LiCl, 100 mM lithium cacodylate); pH 7; NRAS 5 µM, Ru-PIC 2 equivalents (10 µM); no stabilization observed
[3] = system: NRAS (RNA, G4) UGUGGGAGGGGCGGGUCUGGGUGC; test: luminescence and absorbance titration; settings: K+ (10 mM potassium phosphate, 100 mM KCl); RNase-free buffer; Ru-PIC 2 µM, NRAS 0-6 µM; negligible spectral change; no constant
[4] = system: CMYC (DNA, G4) TGGGGAGGGTGGGGAGGGTGGGGAAGG; test: CD melting; settings: Li+ (10 mM LiCl, 100 mM lithium cacodylate; supplement: 90 mM LiCl, 10 mM cacodylate); pH 7; CMYC 5 µM, Ru-PIC 2 equivalents (10 µM)

binding [1]: yes
binding [2]: no
binding [3]: weak
ΔTm [4]: 9.1 ± 0.3 °C
SMILES: O=C(O)c1ccc(-c2nc3c4cccnc4c4ncccc4c3[nH]2)cc1.[Ru+2].c1ccc(-c2ccccn2)nc1.c1ccc(-c2ccccn2)nc1
